The structures appear in SMILES notation.

As usually defined, the IC50 is the concentration that inhibits the measured activity by half. For orientation: AUC(0-t) means exposure summed from dosing to a finite time, without extrapolation to infinity. Usually Cmax stands for the highest concentration seen after dosing. Broadly, the Tmax is the time at which the peak concentration occurs. A word on the half-life: it is the time in which the quantity being followed falls by half.

In the first data set the target is T1, hCTPS1 enzyme (Homo sapiens, UniProt P17812).
T1 sequence (P17812 1-591): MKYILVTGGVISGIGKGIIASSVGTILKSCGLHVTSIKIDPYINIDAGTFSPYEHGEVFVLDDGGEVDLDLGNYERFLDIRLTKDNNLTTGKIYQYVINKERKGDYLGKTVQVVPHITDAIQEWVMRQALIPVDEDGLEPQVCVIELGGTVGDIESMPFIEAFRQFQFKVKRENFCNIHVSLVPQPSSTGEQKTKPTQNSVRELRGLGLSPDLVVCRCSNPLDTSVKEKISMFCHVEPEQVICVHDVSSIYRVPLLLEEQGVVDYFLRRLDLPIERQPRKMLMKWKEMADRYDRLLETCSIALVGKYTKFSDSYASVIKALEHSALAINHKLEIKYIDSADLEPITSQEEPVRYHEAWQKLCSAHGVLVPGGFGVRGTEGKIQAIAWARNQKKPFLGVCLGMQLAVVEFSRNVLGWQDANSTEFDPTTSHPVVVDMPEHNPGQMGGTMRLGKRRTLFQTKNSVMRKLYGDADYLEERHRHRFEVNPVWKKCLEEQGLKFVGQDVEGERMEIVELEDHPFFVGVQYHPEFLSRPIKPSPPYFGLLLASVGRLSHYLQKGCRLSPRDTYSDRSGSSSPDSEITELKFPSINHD
As to the kind of experiment: Inhibition of CTPS1 enzyme activity (ADP-Glo method). Conditions: hCTPS1, 90 min reaction at 25° C. The class given is biochemical. The protocol: The enzyme activity of CTPS1 was tested using the ADP-Glo method. Compounds were serially diluted in DMSO with 3-fold gradients across ten concentrations. Transfer 0.1 μL of diluted compound to a 384-well plate, centrifuge at 1000 rpm for 1 min. Add 2.5 μL of hCTPS1 enzyme working solution, centrifuge at 1000 rpm for 1 min, and incubate at 25° C. for 10 min. Add 2.5 μL of ATP & UTP solution and incubate at 25° C. for 10 min. Add 5 μL of substrate solution to initiate the reaction and incubate at 25° C. for 90 min. Add 10 μL of ADP-Glo solution to the 384-well plate, centrifuge at 1000 rpm for 1 min, incubate at 25° C. for 40 min, add 20 μL of detection solution, centrifuge at 1000 rpm for 1 min, and incubate at 25° C. for 60 min. […] were read using a BMG microplate reader. Inhibition rate (%) was calculated as follows: Inhibition rate (%)=[(DMSO control well signal−Compound well signal)/(DMSO control well signal−Blank control well signal)]×100%. IC50 values for compounds were analyzed by nonlinear regression in XLFit 5.5.0 software using the formula: Y=Bottom+(Top−Bottom)/(1+10^((LogIC50−X)*HillSlope)) where Y is the inhibition rate and X is the log value of compound concentration.
`CCOc1cncc(-c2ccc(NC(=O)C3(c4ccnc(NS(=O)(=O)C5CC5)n4)CCC(=CCOC)CC3)nc2)n1` (single isomer, unassigned) [Compound 18]: the IC50 was under 50 nM.

As for `CCOc1cncc(-c2ccc(C(=O)NC3(c4ccnc(NS(=O)(=O)C5CC5)n4)CCC(=C(F)F)CC3)nc2)n1` (stereo not shown) [Compound 70], the IC50 is under 200 nM.

Test system in a further data set: not listed separately
As to the kind of experiment: in vivo. Further details: species or system SD rats. The settings on record: male, SD, rat, po, 2 mg/kg. The protocol: Instrumentation: SCIEX Triple Quad 6500+ triple quadrupole liquid chromatography-mass spectrometry system (LC-MS/MS), operating software is Analyst 1.7.2 (Applied Biosystems, USA); ExionLC liquid chromatography system; Microsoft Excel was used for data calculation and processing. Pharmacokinetic parameters were calculated using the statistical moment method with WinNonlin 8.2 software. Key kinetic parameters included Tmax, T1/2, Cmax, AUC0-24 h etc. Column: Synergi 4 μm Fusion-RP 80 Å Luna C18 2 mm*50 mm, 4 μm; Column temperature: 40° C.; Mobile phase A: Water (0.1% formic acid); Mobile phase B: Acetonitrile; Flow rate: 0.8 mL/min; Gradient elution is adopted, the elution gradient is 0.10 min: 15% B; 1.60 min: 95% B; 1.90 min: 95% B; 1.91 min: 15% B; 2.20 min: 15% B. Injection volume: 1 μL.
Animals: 3 male SD rats with a weight range of 200-220 g were purchased and kept in the laboratory of the Experimental Animal Center for 3 days and then used. They were fasted for 12 hours predose and 4 hours after dosing. Drinking water was free during the test. After the rats were gavage, blood samples were taken according to the established time point.
Solvent: 0.4% ethanol+0.4% Tween80+99.2% (0.5% methylcellulose M450). Preparation of the solution for intragastric administration: Compounds were accurately weighed and added to the solvent. The mixture was then subjected to vortex mixing and sonication until a homogeneous suspension was achieved, thereby preparing medicinal solutions of the desired concentrations.
Compound samples: Typically, multiple structurally analogous compounds (with molecular weights differing by more than 2 units) were accurately weighed and administered together (cassette PK). This approach allows for the simultaneous screening of multiple compounds and comparison of their oral absorption rates. Single compound administration was also employed to study the pharmacokinetics of drug samples in rats.
After intragastric administration, blood was collected from the jugular vein at 0.25, 0.5, 1, 2, 4, 8, 10 and 24 hours. Transfer 20 μL of plasma sample (for blank samples and internal standard blank samples, add 20 μL of blank plasma) to a 1.5 mL centrifuge tube, add 200 μL of internal standard solution (50% methanol in acetonitrile (concentration 100 ng/mL)) (for Double blank samples, add 200 μL of 50% methanol in acetonitrile solution). Vortex the samples for 5 minutes, then centrifuge at 14000 rpm and 4° C. for 5 minutes. Transfer 80 μL and add to 80 μL of water, mix uniformly, and submit for LC-MS/MS analysis.
The compounds were accurately weighed to prepare different concentrations, and quantitative analysis on mass spectrometry was performed to establish a standard curve, and then the concentration of the above-mentioned compound in the plasma was tested to obtain its concentration at different time points. All measurement data were collected and processed by relevant software, and the statistical moment method was used to calculate the pharmacokinetic parameters (mainly including kinetic parameters Tmax, T1/2, Cmax, AUC0-24 h etc).
For the compound `CCOc1cncc(-c2ccc(NC(=O)C3(c4ccnc(NS(=O)(=O)C5CC5)n4)CCC(=C(C)C4COC4)CC3)nc2)n1` (stereo not shown) [Compound 51], the AUC(0-t) came out at 62.7 ng·h/mL, the highest concentration (Cmax) was 14.5 ng/mL, the time of peak concentration (Tmax) was 4 h and the half-life was 93.6 min.

The same data set, now with this note: male, SD, rat, po, 3 mg/kg.
As for `CCOc1cncc(-c2ccc(NC(=O)C3(c4ccnc(NS(=O)(=O)C5CC5)n4)CCC(=CCO)CC3)nc2)n1` (stereo not shown) [Compound 5], the AUC(0-t) turned out to be 417 ng·h/mL, the Cmax was found to be 359 ng/mL, the Tmax is 0.25 h and the half-life is 104 min.

In another data set the test system is Jurkat cells. Briefly: Inhibition of Jurkat cell proliferation (CellTiter-Glo, 72 hours). The settings on record: Homo sapiens; Jurkat cells, 72 hours, CellTiter-Glo; read-out: Jurkat (IC50). The class given is cell-based. The protocol: Select Jurkat cells in good growth condition and digest them with trypsin. Add fresh culture medium, mix thoroughly, and centrifuge at 1000 rpm for 5 minutes. Seed the cells into a 96-well plate at a density of 10,000 cells per well, and incubate overnight in a 37° C. incubator. On the following day, take out of the culture plate and treat the cells with compounds prepared in a five-fold serial dilution. Return the plate to the 37° C. incubator and continue incubation for 72 hours.
After incubation, bring out the cell culture plate and equilibrate it to room temperature. Add 100 μL of CellTiter-Glo reagent to each well, shake in the dark for 2 minutes, and incubate for 10 minutes. Measure the luminescence using an Enspire plate reader. Calculate the inhibition rate using the following formula: Inhibition rate (%)=(1−(RLU_compound−RLU_blank)/(RLU_DMSO−RLU_blank))×100%. Plot the dose-response curve and calculate the IC50 value using XLFit.
(Cellular ATP, detected with luciferase, serves as a proxy for viable cell number.)
On to `CCOc1cncc(-c2ccc(NC(=O)C3(c4ccnc(NS(=O)(=O)C5CC5)n4)CCC(=CCOC)CC3)nc2)n1` (single isomer, unassigned) [Compound 18], for which the half-inhibitory concentration (IC50) was under 50 nM. Same read-out and setting: to `CCOc1cncc(-c2ccc(NC(=O)C3(c4ccnc(NS(=O)(=O)C5CC5)n4)CCC(=CCO)CC3)nc2)n1` (stereo not shown) [Compound 5] belongs under 15 nM; to `CCOc1cncc(-c2ccc(NC(=O)C3(c4ccnc(N(C)S(=O)(=O)C5CC5)n4)CCC(=CCO)CC3)nc2)n1` (stereo not shown) [Compound 6], under 100 nM; to `O=C(Nc1ccc(-c2cncc(OC3CC(=C(F)F)C3)n2)cn1)C1(c2ccnc(NS(=O)(=O)C3CC3)n2)CCOCC1` (stereo not shown) [Compound 7], under 750 nM. On the same count and under the same terms, to `C=C1CCC(C(=O)Nc2ccc(-c3cncc(OCC)n3)cn2)(c2ccnc(NS(=O)(=O)C3CC3)n2)CC1` [Compound 9] belongs under 50 nM; to `CCOc1cncc(-c2ccc(NC(=O)C3(c4ccnc(NS(=O)(=O)C5CC5)n4)CCC(=CCOC)CC3)nc2)n1` (stereo not shown) [Compound 17], under 200 nM. Take `CCOc1cncc(-c2ccc(NC(=O)C3(c4ccnc(NS(=O)(=O)C5CC5)n4)CC(=CF)C3)nc2)n1` (stereo not shown) [Compound 20]: the IC50 is under 200 nM.

For the compound `CCOc1cncc(-c2ccc(NC(=O)C3(c4ccnc(NS(=O)(=O)C5CC5)n4)CCC(=CCc4ccccc4)CC3)nc2)n1` (stereo not shown) [Compound 21], the IC50 was under 1000 nM. Same read-out and setting: then `CCOc1cncc(-c2ccc(NC(=O)C3(c4ccnc(NS(=O)(=O)C5CC5)n4)CCN(c4cccnc4)CC3)nc2)n1` [Compound 25], with under 30 nM; and `CCOc1cncc(-c2ccc(NC(=O)C(=C3CCOCC3)c3ccnc(NS(=O)(=O)C4CC4)n3)nc2)n1` [Compound 33], with under 1000 nM; and `CCOc1cncc(-c2ccc(NC(=O)C3(c4ccnc(NS(=O)(=O)C5CC5)n4)CCN(c4ccncc4)CC3)nc2)n1` [Compound 35], with under 200 nM. Consider `CCOc1cncc(-c2ccc(NC(=O)C3(c4ccnc(NS(=O)(=O)C5CC5)n4)CCC(=Cc4ccccn4)CC3)nc2)n1` (stereo not shown) [Compound 38], for which the 50% inhibitory concentration (IC50) is under 30 nM. Still for that read-out and setting: to `CCOc1cncc(-c2ccc(NC(=O)C3(c4ccnc(NS(=O)(=O)C5CC5)n4)CCC(=CC(N)=O)CC3)nc2)n1` (stereo not shown) [Compound 40] belongs under 200 nM.

On to `CCOc1cncc(-c2ccc(NC(=O)C3(c4ccnc(NS(=O)(=O)C5CC5)n4)CCC(=CCN)CC3)nc2)n1` (stereo not shown) [Compound 41], for which the IC50 is under 100 nM.

On to `CCOc1cncc(-c2ccc(NC(=O)C3(c4ccnc(NS(=O)(=O)C5CC5)n4)CCC(=Cc4ccoc4)CC3)nc2)n1` (stereo not shown) [Compound 42], for which the IC50 is under 50 nM. On the same count and under the same terms, to `CCOC(=O)C(F)=C1CCC(C(=O)Nc2ccc(-c3cncc(OCC)n3)cn2)(c2ccnc(NS(=O)(=O)C3CC3)n2)CC1` (stereo not shown) [Compound 43] belongs under 50 nM; to `CCOc1cncc(-c2ccc(NC(=O)C3(c4ccnc(NS(=O)(=O)C5CC5)n4)CCC(=C(F)C#N)CC3)nc2)n1` (stereo not shown) [Compound 49], under 50 nM; to `CCOc1cncc(-c2ccc(NC(=O)C3(c4ccnc(NS(=O)(=O)C5CC5)n4)CCC(=C(C)C4COC4)CC3)nc2)n1` (stereo not shown) [Compound 51], under 30 nM. The same measure, in the same setting: to `CCOc1cncc(-c2ccc(NC(=O)C3(c4ccnc(NS(=O)(=O)C5CC5)n4)CCC(=Cc4ccsc4)CC3)nc2)n1` (stereo not shown) [Compound 53] belongs under 100 nM; to `CCOc1cncc(-c2ccc(NC(=O)C3(c4ccnc(NS(=O)(=O)C5CC5)n4)CCC(=Cc4cncnc4)CC3)nc2)n1` (stereo not shown) [Compound 56], under 50 nM; to `CCOc1cncc(-c2ccc(NC(=O)C3(c4ccnc(NS(=O)(=O)C5CC5)n4)CCC(=CC(C)(C)O)CC3)nc2)n1` (stereo not shown) [Compound 57], under 50 nM. Still for that read-out and setting: to `CCOc1cncc(-c2ccc(NC(=O)C3(c4ccnc(NS(=O)(=O)C5CC5)n4)CCC(=CC4CC(O)C4)CC3)nc2)n1` (stereo not shown) [Compound 59] belongs under 15 nM. As for `CCOc1cncc(-c2ccc(NC(=O)C3(c4ccnc(NS(=O)(=O)C5CC5)n4)CCC(=CC(C)=O)CC3)nc2)n1` (stereo not shown) [Compound 60], the half-maximal inhibitory concentration (IC50) is under 30 nM. The same measure, in the same setting: to `CCOc1cncc(-c2ccc(NC(=O)C3(c4ccnc(NS(=O)(=O)C5CC5)n4)CCC(=C(F)C(C)=O)CC3)nc2)n1` (stereo not shown) [Compound 61] belongs under 50 nM; to `CCOc1cncc(-c2ccc(NC(=O)C3(c4ccnc(NS(=O)(=O)C5CC5)n4)CCC4(CC3)CC(=C(F)F)C4)nc2)n1` (stereo not shown) [Compound 64], under 50 nM; to `CCOc1cncc(-c2ccc(NC(=O)C3(c4ccnc(NS(=O)(=O)C5CC5)n4)CCC(=C(F)F)CC3)c(F)c2)n1` (stereo not shown) [Compound 65], under 50 nM.

As to `CCOc1cncc(-c2ccc(NC(=O)C3(c4nccc(NS(=O)(=O)C5CC5)n4)CCC(=C(F)F)CC3)nc2)n1` (stereo not shown) [Compound 66], the IC50 is under 50 nM.

With `CCOc1cncc(-c2cnc(NC(=O)C3(c4ccnc(NS(=O)(=O)C5CC5)n4)CCC(=C(F)F)CC3)c(F)c2)n1` (stereo not shown) [Compound 71], the IC50 is under 200 nM. Take `CCOc1cncc(-c2cnc(C(=O)NC3(c4ccnc(NS(=O)(=O)C5CC5)n4)CCC(=C(F)F)CC3)s2)n1` (stereo not shown) [Compound 72]: the IC50 was under 200 nM. The same measure, in the same setting: then `CCOc1cncc(-c2ccc(NC(=O)C3(c4csc(NS(=O)(=O)C5CC5)n4)CCC(=C(F)F)CC3)nc2)n1` (stereo not shown) [Compound 73], with under 30 nM.

The values above are taken from patent US20260226026A1, “COMPOUND AS CTPS1 INHIBITOR” (Hangzhou Innogate Pharma Co., Ltd., priority 2023, published 2026).
